One sequence from paper PMC4077824, “Conserved Prosegment Residues Stabilize a Late-Stage Folding Transition State of Pepsin Independently of Ground States” (PLoS ONE, 2014) can be followed below.

This data set can be described thus: CD spectroscopy of prosegment. It counts as physicochemical. To be noted: PSwt 0.1 mg/ml, pure water or 20 mM acetic acid/NaOH pH 5.3 with and without 100 mM NaCl. The protocol: CD data were collected using a Jasco J-810 spectropolarimeter (Jasco corp., Tokyo, Japan), over a wavelength range of 250 nm to 190 nm with a 1 nm resolution, 100 nm/min scan rate, 0.25 s response time and four-fold accumulation of scans. PSwt was diluted to 0.1 mg/ml in either pure water or 20 mM acetic acid/NaOH buffer at pH 5.3, with and without 100 mM NaCl, and loaded into a cell with a 0.1 cm path length. Background spectra were subtracted and the sample spectra converted to units of mean residue ellipticity, MRE, using MRE = MRW ×θ λ/(10×d×c), where MRW is the mean residue weight (molecular weight/number of residues), θ λ is the measured ellipticity at a particular wavelength (degrees), d is the pathlength (0.1 cm) and c is the protein concentration (g/cm^3).
Supplementary file pone.0101339.s006.tif: Figure S6 CD spectra of prosegment. Far-UV CD spectra of PSwt, in ddH2O and in 20 mM acetic acid/NaOH, at pH 5.3, with and without 100 mM NaCl added. […] Anal Biochem 287: 243–251]. (TIF) Click here for additional data file.

Where no end group is shown, it is not given here.

For “LVKVPLVRKKSLRQNLIKNGKLKDFLKTHKHNPASKYFPEAAAL [WT]”, the “secondary structure of free PS by CD” value is “A negative band at 198 nm is characteristic of random coil structure”. Also, the “secondary structure of free PS by CD” value (listed as PS) was “unstructured on its own”.
